Values quoted from earlier work, collected in US12176087B2, “Pharmacogenomic decision support for modulators of the NMDA, glycine, and AMPA receptors” (THE REGENT OF THE UNIVERSITY OF MICHIGAN, priority 2019, dated 2024).

What was measured:
[1] = tested on: TRD patients; conditions: phase III trial
[2] = tested on: treatment-resistant depression (TRD) patients

SMILES | deaths reported [1] | TRD patients who experienced severe dissociative effects ([1]; fraction of TRD patients) | TRD patients in the treatment arm with severe psychotomimetic effects including delirium, delusion and suicidal ideation, as well as suicide attempts ([1]; treatment arm, additional) [%] | TRD patients who do not remit after treatment ([2]; fraction of all TRD patients) | TRD patients with rapid antidepressant response and concomitant elevated levels of glutamate in cortex ([2]; measured by MADRS total score)
CN[C@]1(c2ccccc2Cl)CCCCC1=O [Esketamine] | 2 | a quarter | 6.9 |  | 
CNC1(c2ccccc2Cl)CCCCC1=O (racemic) [Ketamine, RS-2-chlorophenyl-2-methylamino-cyclohexanone] |  |  |  | about half | approximately 50%
